Source: patent publication US7566805B2, “Modafinil compositions” (priority 2003, dated 2009)
Where two headings read alike, the source gives them in different places.

What was measured:
[1] = cited from earlier work
[2] = Racemic modafinil:malonic acid co-crystal pharmacokinetic study in dogs (vs micronized pure modafinil); assay type: in vivo
Description: As a reference, micronized modafinil with a median particle size of about 2 micrometers was also administered in the study.

[3] = Dog pharmacokinetic study of a single intravenous dose of R-(−)-modafinil vs racemic modafinil; assay type: in vivo; settings: dogs; for AUC(0-inf) / Cmax / Vd / clearance / half-life: dog, plasma, 5 mg/kg IV, Mean
Excerpt: A dog pharmacokinetic study (N=6) of a single intravenous dose of R-(−)-modafinil was completed. The purity of the R-(−)-modafinil in the administered formulation was ca 80 percent. This formulation was compared to a formulation of racemic modafinil, also administered by the intravenous route to the same dogs in a crossover design. Ir. Table VII, “Cmax” is the maximum blood plasma concentration, “AUC (inf)” is the extrapolated area under the curve, “t1/2” is the amount of time for the blood plasma level to decrease to half of the Cmax level beginning at administration, “Vd” is the volume of distribution, and “CL” is the clearance rate of modafinil.

[4] = dogs, 30 mg/kg oral dose, plasma 2 to 9 hours post-dose, cited from earlier work; for Mean AUC (sulfone): sulfone metabolite
[5] = cited from earlier work; remark: listed apart in the source
[6] = In vitro dissolution in simulated gastric fluid (SGF) and simulated intestinal fluid (SIF); settings: micronized, blended with lactose, HPMC capsules
Description: Further aqueous solubility can be measured in simulated gastric fluid (SGF) or simulated intestinal fluid (SIF) rather than water.
Both samples were blended with lactose and filled into HPMC capsules.

[7] = Solid-state stability of modafinil:malonic acid co-crystal at various temperatures and relative humidities; assay type: physicochemical; settings: for degradation / degradation per day: four week period
Description: At 60 degrees C., about 0.14 percent degradation per day was determined based on a simple exponential model. At 80 degrees C., about 8 percent degradation per day was determined.
FIGS. 49 and 50 show the % area impurities as measured via HPLC versus time (weeks) for samples stored at various conditions including: 25 degrees C., 60% RH; 40 degrees C., 75 percent RH; 40 degrees C., ambient RH; 60 degrees C., ambient RH; 80 degrees C., ambient RH; and −20 degrees C.

[8] = Pharmacokinetic study with dogs: modafinil:malonic acid formulated with lactose vs PROVIGIL tablets; assay type: in vivo
Excerpt: In Table VI, “Cmax” is the maximum blood plasma concentration, “AUC (inf)” is the extrapolated area under the curve, “t1/2” is the amount of time for the blood plasma level to decrease to half of the Cmax level beginning at administration, “Tmax” is the time to maximum blood plasma concentration from administration, “CL” is the clearance rate of modafinil, and “F %” is the percent bioavailability.

[9] = Dynamic vapor sorption isotherm; assay type: physicochemical; settings: up to at least 40 percent RH at 26 degrees C.
[10] = second value listed in the cell

Row | Compound | pKa Values ([5]; first value listed in the cell) | pKa Values [5, 10] | other results
1 | NC(=O)C[S+]([O-])C(c1ccccc1)c1ccccc1 (racemic) [Racemic Modafinil, (±)-2-[(Diphenylmethyl)sulfinyl]acetamide] | – | – | solubility in water [1]: practically insoluble; half-life ([2]; dog, in vivo): 2.1 ± 0.7 h; Cmax ([2]; dog, in vivo, median particle size 2 micrometers (pure modafinil), 16 micrometers (co-crystal)): 11000 ± 5900 ng/mL; Tmax ([2]; dog, in vivo, read-out: Tmax): 1.3 ± 0.6 h; AUC(0-inf) [3]: 15100 ng·h/mL; Cmax [3]: 8680 ng/mL; Vd [3]: 0.589 L/kg; clearance [3]: 5.68 mL/min/kg; half-life [3]: 1.05 h; Mean AUC (racemate) [4]: 46760 ± 6950 ng·h/mL; Mean AUC (sulfone) [4]: 35120 ± 6930 ng·h/mL
2 | Nc1ccc(C(=O)O)cc1 [4-aminobenzoic acid] | 4.7 | – | –
3 | Nc1ccncc1 [4-aminopyridine] | 10 | – | –
4 | CCOc1ccc(NC(N)=O)cc1 [4-ethoxyphenyl urea] | ~7-9 | – | –
5 | Nc1ncnc2nc[nH]c12 [Adenine] | 3.8 | – | –
6 | Oc1ncnc2[nH]ncc12 [Allopurinaol] | 10.2 | – | –
7 | N=C(N)NCCC[C@H](N)C(=O)O [Arginine] | 2.18 | 9.09 | –
8 | NC(=O)C[C@H](N)C(=O)O [Asparagine] | 2.02 | 8.5 | –
9 | CC1(C(=O)O)CCC(C(=O)O)C1(C)C (stereo not drawn) [Camphoric acid] | – | 5.83 | –
10 | N[C@@H](CS)C(=O)O [Cysteine] | 1.71 | 8.33 | pKa Values ([5]; third value listed in the cell): 10.78
11 | CN(C)CC(=O)O [Dimethylglycine] | 2.5 | – | –
12 | NC(=O)C[S@+]([O-])C(c1ccccc1)c1ccccc1 [Example 40-983, S-(+)-2-[(Diphenylmethyl)sulfinyl]acetamide] | – | – | Mean AUC (racemate) [4]: 50940 ± 8770 ng·h/mL; Mean AUC (sulfone) [4]: 83120 ± 21660 ng·h/mL
13 | O=C(O)[C@@H](O)[C@H](O)[C@H](O)[C@@H](O)C(=O)O [Galactaric acid] | – | 3.63 | –
14 | NC1[C@H](O)OC(CO)[C@@H](O)[C@H]1O (stereo partly drawn) [Glucosamine] | 6.91 | – | –
15 | O=C(O)CCCC(=O)O [Glutaric acid] | 2.7 | 4.5 | –
16 | CC[C@H](C)[C@H](N)C(=O)O [Isoleucine] | 2.32 | 9.76 | –
17 | O=C(O)[C@H](O)[C@@H](O)[C@H](O[C@@H]1O[C@H](CO)[C@H](O)[C@H](O)[C@H]1O)[C@H](O)CO [Lactobionic acid] | 3.2 | – | –
18 | CCCCCCCCCCCC(=O)O [Lauric acid] | ~4.5 | – | –

Row | Compound | pKa Values ([5]; first value listed in the cell) | pKa Values [5, 10] | other results
19 | NC(=O)c1cccnc1 [Nicotinamide] | 3.3 | – | –
20 | O=C(O)c1cc(=O)[nH]c(=O)[nH]1 [Orotic acid] | 5.85 | 8.95 | –
21 | CCCCCCCCCCCCCCCC(=O)O [Palmitic acid] | 4.9 | – | –
22 | N[C@@H](Cc1ccccc1)C(=O)O [Phenylalanine] | ~2 | ~9 | –
23 | Cc1ncc(CO)c(CN)c1O [Pyridoxamine] | ~9 | – | –
24 | Cc1ncc(CO)c(CO)c1O [Pyridoxine] | ~9 | – | –
25 | NC(=O)C[S@@+]([O-])C(c1ccccc1)c1ccccc1 [R-(−)-modafinil, R-(−)-2-[(Diphenylmethyl)sulfinyl]acetamide] | – | – | AUC(0-inf) [3]: 15900 ng·h/mL; Cmax [3]: 7810 ng/mL; Vd [3]: 0.647 L/kg; clearance [3]: 5.67 mL/min/kg; half-life [3]: 1.53 h; difference in pharmacokinetics vs racemic modafinil ([3]; intravenous administration): no significant difference; Mean AUC (racemate) [4]: 97220 ± 12580 ng·h/mL; Mean AUC (sulfone) [4]: 8690 ± 1220 ng·h/mL
26 | Nc1ccc(C(=O)O)c(O)c1 [Salicylic acid, 4-amino] | 3.25 | 10 | pKa Values ([5]; third value listed in the cell): 3.5
27 | C[C@@H](O)[C@H](N)C(=O)O [Threonine] | 2.15 | 9.12 | –
28 | N[C@@H](Cc1c[nH]c2ccccc12)C(=O)O [Tryptophan] | – | 9.39 | –
29 | CC(C)[C@H](N)C(=O)O [Valine] | ~4.5 | ~9 | –
30 | Cc1cc(N)c2ccccc2c1O [Vitamin K5] | ~9 | – | melting point: 280 to 282 °C (dec.)
31 | OC[C@@H](O)[C@H](O)[C@@H](O)CO [Xylitol] | ~9 | – | –
32 | Acetohydroxamic acid | 8.7 | – | –
33 | Imidazole | 6.92 | – | –
34 | Racemic Modafinil:Malonic Acid Co-crystal [Modafinil: malonic acid co-crystal] | – | – | release of modafinil into solution vs free form of modafinil ([6]; SGF): more quickly; release of modafinil into solution vs free form of modafinil ([6]; SIF): more quickly; degradation ([7]; 20 degrees C.): No degradation; degradation ([7]; 40 degrees C.): No degradation; degradation per day ([7]; 60 degrees C., simple exponential model): about 0.14 percent degradation per day; degradation per day ([7]; 80 degrees C.): about 8 percent degradation per day; stability on storage (% area impurities via HPLC) ([7]; stored at or below 40 degrees C. for at least 26 weeks): stable; CL ([8]; 200 mg modafinil, Mean): 368.33; Tmax ([8]; 200 mg modafinil, Mean): 2 h; AUC (inf) ([8]; 200 mg modafinil, Mean, extrapolated, in ng·h/mL): 50545.00; Cmax ([8]; 200 mg modafinil, Mean, in ng/mL): 11246.67; F % ([8]; 200 mg modafinil, Mean, percent bioavailability): 81.57%; Cmax compared with PROVIGIL tablets ([8]; FIG. 56): increased; water adsorption (DVS) [9]: no appreciable water adsorption; AUC higher than that of the pure modafinil [2]: 40 to 60%; Tmax [2]: 1.7 ± 0.6 h
35 | Urea | ~8 | – | –
